For 25 molecules, IC50 results are on record in publication PMC11053857, “Synthesis, In Vitro Biological Evaluation and Molecular Modeling of Benzimidazole-Based Pyrrole/Piperidine Hybrids Derivatives as Potential Anti-Alzheimer Agents” (Pharmaceuticals, 2024).

In test [1] the target is butyrylcholinesterase (BuChE) (Homo sapiens, UniProt P06276). The experiment in a line: biochemical. The note with it: in vitro, 25 °C, pH 8.0, triplicate, standards listed separately for series 1–13 and 14–26. On the procedure:
(§1) The enzyme inhibition activities for acetylcholinesterase and butyrylcholinesterase were determined using the method of Ellman et al. with slight modifications. The 62.0 mM sodium phosphate buffer (pH 8.0, 880 μL) used contained 0.002 M of DTNB (5,5′-dithiobis-2-nitrobenzoic acid). AChE and BuChE solutions (40 μL) were added with the test compounds (40 μL) and kept at 25 °C for 10–15 min. The acetylthiocholine or butyrylthiocholine (40 μL) were added just before the initiation of the catalytic reaction. The enzymatic hydrolysis of the substrates encompassing the formation of yellow 5-thio-2-nitrobenzoate anion products was monitored at 412 nm (15 min). The inhibition reactions were repeated in triplicate with a Shimadzu spectrophotometer (Kyoto, Japan).

In test [2] the target is acetylcholinesterase (AChE) (Homo sapiens, UniProt P22303). The experiment in a line: biochemical. On the procedure: as §1, with “The enzymatic hydrolysis of the substrates encompassing the formation of yellow 5-thio-2-nitrobenzoate anion products was monitored at 412 nm (15 min).” left out
The mark [3] stands for this setting: read-out: BuChE Inhibition IC50 ± SEM.
[4] abbreviates: in vitro, 25 °C, pH 8.0, triplicate, standards listed separately for series 1–13 and 14–26, read-out: AChE Inhibition IC50 ± SEM.

Structures are written as SMILES. Where two headings read alike, the source gives them in different places.

Sequence of butyrylcholinesterase (BuChE) (P06276 29-602): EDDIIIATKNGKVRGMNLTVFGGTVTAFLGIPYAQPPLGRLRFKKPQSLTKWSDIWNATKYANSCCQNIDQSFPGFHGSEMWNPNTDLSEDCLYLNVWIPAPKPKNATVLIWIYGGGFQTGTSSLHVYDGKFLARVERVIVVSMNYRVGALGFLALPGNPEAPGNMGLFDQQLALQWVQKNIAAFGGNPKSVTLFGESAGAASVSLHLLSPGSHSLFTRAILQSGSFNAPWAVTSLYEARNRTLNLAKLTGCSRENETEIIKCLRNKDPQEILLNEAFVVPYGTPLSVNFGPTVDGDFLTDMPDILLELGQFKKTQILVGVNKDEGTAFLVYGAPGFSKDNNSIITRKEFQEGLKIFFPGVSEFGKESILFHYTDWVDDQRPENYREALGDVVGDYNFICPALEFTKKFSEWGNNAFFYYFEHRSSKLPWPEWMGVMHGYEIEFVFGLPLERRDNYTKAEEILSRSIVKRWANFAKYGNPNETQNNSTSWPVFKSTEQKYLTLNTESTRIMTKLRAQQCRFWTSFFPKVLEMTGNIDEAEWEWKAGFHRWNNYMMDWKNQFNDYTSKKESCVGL
Sequence of acetylcholinesterase (AChE) (P22303 32-614, species assumed): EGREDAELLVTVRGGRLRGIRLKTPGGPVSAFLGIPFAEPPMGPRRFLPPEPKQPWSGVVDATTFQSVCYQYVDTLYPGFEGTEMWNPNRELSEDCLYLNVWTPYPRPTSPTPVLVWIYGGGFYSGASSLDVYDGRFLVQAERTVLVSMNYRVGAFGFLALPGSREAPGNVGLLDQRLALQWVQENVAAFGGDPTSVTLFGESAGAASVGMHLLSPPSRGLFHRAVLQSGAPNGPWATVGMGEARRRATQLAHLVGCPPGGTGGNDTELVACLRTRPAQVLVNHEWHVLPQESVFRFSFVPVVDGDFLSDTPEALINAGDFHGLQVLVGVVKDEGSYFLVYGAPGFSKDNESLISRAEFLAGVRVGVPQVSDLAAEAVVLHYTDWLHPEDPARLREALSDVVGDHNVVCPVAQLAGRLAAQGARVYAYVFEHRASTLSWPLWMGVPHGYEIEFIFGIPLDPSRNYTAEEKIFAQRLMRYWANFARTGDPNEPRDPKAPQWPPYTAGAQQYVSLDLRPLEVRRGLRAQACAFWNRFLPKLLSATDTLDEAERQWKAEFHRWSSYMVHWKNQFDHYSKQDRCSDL

For `COc1ccc(/C(CSc2nc3cc([N+](=O)[O-])ccc3[nH]2)=N\N=C\N2CCCCC2)cc1` [Compound 24, 2-(((E)-2-(4-methoxyphenyl)-2-(((E)-piperidin-1-ylmethylene)hydrazono)ethyl)thio)-5-nitro-1H-benzo[d]imidazole], the figures for the 50% inhibitory concentration (IC50) in test [1] (setting [3]) and in test [2] (setting [4]) were 39.66 ± 0.24 µM and 32.05 ± 0.14 µM, respectively.

Consider `Cc1ccc(/C(CSc2nc3cc([N+](=O)[O-])ccc3[nH]2)=N\N=C\N2CCCCC2)cc1` [Compound 25, 5-nitro-2-(((E)-2-(((E)-piperidin-1-ylmethylene)hydrazono)-2-(p-tolyl)ethyl)thio)-1H-benzo[d]imidazole], for which the IC50 in test [1] (setting [3]) was 32.25 ± 0.12 µM; in test [2] (setting [4]), 35.01 ± 0.25 µM.

Take `Cc1ccc(/C(CSc2nc3ccccc3[nH]2)=N\N=C\c2cc[nH]c2)cc1` [Compound 7, 2-(((E)-2-(((E)-(1H-pyrrol-3-yl)methylene)hydrazono)-2-(p-tolyl)ethyl)thio)-1H-benzo[d]imidazole]: the IC50 in test [1] (setting [3]) worked out at 39.55 ± 0.03 µM; in test [2] (setting [4]), 36 ± 0.41 µM.

With `O=[N+]([O-])c1ccc2[nH]c(SC/C(=N/N=C/c3cc[nH]c3)c3ccc(-c4ccccc4)cc3)nc2c1` [Compound 11, 2-(((E)-2-(((E)-(1H-pyrrol-3-yl)methylene)hydrazono)-2-([1,1′-biphenyl]-4-yl)ethyl)thio)-5-nitro-1H-benzo[d]imidazole], the IC50 in test [1] (setting [3]) came to 37.76 ± 0.08 µM; in test [2] (setting [4]), 32.13 ± 0.18 µM.

Consider `COc1ccc(/C(CSc2nc3ccccc3[nH]2)=N\N=C\c2cc[nH]c2)cc1` [Compound 9, 2-(((E)-2-(((E)-(1H-pyrrol-3-yl)methylene)hydrazono)-2-(4-methoxyphenyl)ethyl)thio)-1H-benzo[d]imidazole], for which the concentration for half-maximal inhibition (IC50) came to 28.01 ± 0.13 µM in test [1] (setting [3]) and 24.16 ± 0.21 µM in test [2] (setting [4]).

With `COc1ccccc1/C(CSc1nc2ccccc2[nH]1)=N\N=C\c1cc[nH]c1` [Compound 8, 2-(((E)-2-(((E)-(1H-pyrrol-3-yl)methylene)hydrazono)-2-(2-methoxyphenyl)ethyl)thio)-1H-benzo[d]imidazole], the values for the concentration for half-maximal inhibition (IC50) in test [1] (setting [3]) and in test [2] (setting [4]) were 25.1 ± 0.44 µM and 21.03 ± 0.11 µM, respectively.

`COc1ccc2[nH]c(SC/C(=N/N=C/c3cc[nH]c3)c3ccc(-c4ccccc4)cc3)nc2c1` [Compound 3, 2-(((E)-2-(((E)-(1H-pyrrol-3-yl)methylene)hydrazono)-2-([1,1′-biphenyl]-4-yl)ethyl)thio)-5-methoxy-1H-benzo[d]imidazole]: the IC50 in test [1] (setting [3]) is 34.06 ± 0.14 µM; in test [2] (setting [4]) it was 30.11 ± 0.23 µM.

`COc1ccc(/C(CSc2nc3cc(OC)ccc3[nH]2)=N\N=C\c2cc[nH]c2)cc1` [Compound 2, 2-(((E)-2-(((E)-(1H-pyrrol-3-yl)methylene)hydrazono)-2-(4-methoxyphenyl)ethyl)thio)-5-methoxy-1H-benzo[d]imidazole]: the half-inhibitory concentration (IC50) turned out to be 23.22 ± 0.15 µM in test [1] (setting [3]) and 20.04 ± 0.15 µM in test [2] (setting [4]).

Regarding `COc1ccc(/C(CSc2nc3cc([N+](=O)[O-])ccc3[nH]2)=N\N=C\c2cc[nH]c2)cc1` [Compound 12], the IC50 in test [1] (setting [3]) turned out to be 27.35 ± 0.06 µM; in test [2] (setting [4]), 23.1 ± 0.35 µM.

As to `COc1ccc2[nH]c(SC/C(=N/N=C/N3CCCCC3)c3ccc(-c4ccccc4)cc3)nc2c1` [Compound 14, 2-(((E)-2-([1,1′-biphenyl]-4-yl)-2-(((E)-piperidin-1-ylmethylene)hydrazono)ethyl)thio)-5-methoxy-1H-benzo[d]imidazole], the IC50 came out at 47.03 ± 0.15 µM in test [1] (setting [3]) and 42.01 ± 0.02 µM in test [2] (setting [4]).

As to `O=[N+]([O-])c1cccc(/C(CSc2nc3ccccc3[nH]2)=N\N=C\c2cc[nH]c2)c1` [Compound 6, 2-(((E)-2-(((E)-(1H-pyrrol-3-yl)methylene)hydrazono)-2-(3-nitrophenyl)ethyl)thio)-1H-benzo[d]imidazole], the IC50 is 32.14 ± 0.21 µM in test [1] (setting [3]) and 28.12 ± 0.09 µM in test [2] (setting [4]).

For `COc1ccc2[nH]c(SC/C(=N/N=C/N3CCCCC3)c3ccccc3OC)nc2c1` [Compound 15, 5-methoxy-2-(((E)-2-(2-methoxyphenyl)-2-(((E)-piperidin-1-ylmethylene)hydrazono)ethyl)thio)-1H-benzo[d]imidazole], the IC50 in test [1] (setting [3]) was found to be 29.11 ± 0.14 µM; in test [2] (setting [4]) it was 26.03 ± 0.15 µM.

As for `COc1ccc2[nH]c(SC/C(=N/N=C/c3cc[nH]c3)c3ccc(C)cc3)nc2c1` [Compound 1, 2-(((E)-2-(((E)-(1H-pyrrol-3-yl)methylene)hydrazono)-2-(p-tolyl)ethyl)thio)-5-methoxy-1H-benzo[d]imidazole], the IC50 in test [1] (setting [3]) was found to be 31.03 ± 0.11 µM; in test [2] (setting [4]), 27.11 ± 0.02 µM.

For the molecule `O=[N+]([O-])c1cccc(/C(CSc2nc3cc([N+](=O)[O-])ccc3[nH]2)=N\N=C\c2cc[nH]c2)c1` [Compound 10, 2-(((E)-2-(((E)-(1H-pyrrol-3-yl)methylene)hydrazono)-2-(3-nitrophenyl)ethyl)thio)-5-nitro-1H-benzo[d]imidazole], the IC50 in test [1] (BuChE Inhibition IC50 ± SEM) was 21.6 ± 0.61 µM; in test [2], 19.4 ± 0.6 µM.

With `COc1ccc(/C(CSc2nc3cc(OC)ccc3[nH]2)=N\N=C\N2CCCCC2)cc1` [Compound 16, 5-methoxy-2-(((E)-2-(4-methoxyphenyl)-2-(((E)-piperidin-1ylmethylene) hydrazono)ethyl)thio)-1H-benzo[d]imidazole], the 50% inhibitory concentration (IC50) in test [1] (setting [3]) was 30.01 ± 0.23 µM; in test [2] (setting [4]), 28.13 ± 0.23 µM.

On to `COc1ccccc1/C(CSc1nc2ccccc2[nH]1)=N\N=C\N1CCCCC1` [Compound 21, 2-(((E)-2-(2-methoxyphenyl)-2-(((E)-piperidin-1-ylmethylene)hydrazono)ethyl)thio)-1H-benzo[d]imidazole], for which the IC50 is 38.02 ± 0.04 µM in test [1] (setting [3]) and 30.1 ± 0.41 µM in test [2] (setting [4]).

`COc1ccc2[nH]c(SC/C(=N/N=C/c3cc[nH]c3)c3ccccc3OC)nc2c1` [Compound 4, 2-(((E)-2-(((E)-(1H-pyrrol-3-yl)methylene)hydrazono)-2-(2-methoxyphenyl)ethyl)thio)-5-methoxy-1H-benzo[d]imidazole]: the IC50 in test [1] (setting [3]) was 29.2 ± 0.8 µM; in test [2] (setting [4]), 26.2 ± 0.41 µM.

`COc1ccc(/C(CSc2nc3ccccc3[nH]2)=N\N=C\N2CCCCC2)cc1` [Compound 22, 2-(((E)-2-(4-methoxyphenyl)-2-(((E)-piperidin-1-ylmethylene)hydrazono)ethyl)thio)-1H-benzo[d]imidazole]: the results for the concentration for half-maximal inhibition (IC50) in test [1] (setting [3]) and in test [2] (setting [4]) were 34.31 ± 0.12 µM and 34.02 ± 0.11 µM, respectively.

For `COc1ccc2[nH]c(SC/C(=N/N=C/N3CCCCC3)c3ccc(C)cc3)nc2c1` [Compound 18, 5-methoxy-2-(((E)-2-(((E)-piperidin-1-ylmethylene)hydrazono)-2-(p-tolyl)ethyl)thio)-1H-benzo[d]imidazole], the values for the IC50 in test [1] (setting [3]) and in test [2] (setting [4]) were 39.11 ± 0.13 µM and 36.15 ± 0.03 µM, respectively.

Regarding `O=[N+]([O-])c1ccc2[nH]c(SC/C(=N/N=C/N3CCCCC3)c3ccc(-c4ccccc4)cc3)nc2c1` [Compound 23], the values for the half-maximal inhibitory concentration (IC50) in test [1] (setting [3]) and in test [2] (setting [4]) were 42.27 ± 0.41 µM and 38.2 ± 0.4 µM, respectively.

For `O=[N+]([O-])c1cccc(/C(CSc2nc3ccccc3[nH]2)=N\N=C\N2CCCCC2)c1` [Compound 20, 2-(((E)-2-(3-nitrophenyl)-2-(((E)-piperidin-1-ylmethylene)hydrazono)ethyl)thio)-1H-benzo[d]imidazole], the half-inhibitory concentration (IC50) was 31.25 ± 0.03 µM in test [1] (setting [3]) and 29.04 ± 0.22 µM in test [2] (setting [4]).

With `Cc1ccc(/C(CSc2nc3ccccc3[nH]2)=N\N=C\N2CCCCC2)cc1` [Compound 19, 2-(((E)-2-(((E)-piperidin-1-ylmethylene)hydrazono)-2-(p-tolyl)ethyl)thio)-1H-benzo[d]imidazole], the figures for the concentration for half-maximal inhibition (IC50) in test [1] (setting [3]) and in test [2] (setting [4]) were 36.22 ± 0.11 µM and 33.19 ± 0.09 µM, respectively.

Regarding `C(=N\N=C(\CSc1nc2ccccc2[nH]1)c1ccc(-c2ccccc2)cc1)/c1cc[nH]c1` [Compound 5, 2-(((E)-2-(((E)-(1H-pyrrol-3-yl)methylene)hydrazono)-2-([1,1′-biphenyl]-4-yl)ethyl)thio)-1H-benzo[d]imidazole], the IC50 in test [1] (setting [3]) was 37.21 ± 0.23 µM; in test [2] (setting [4]), 34.16 ± 0.03 µM.

In the case of `COc1ccc2[nH]c(SC/C(=N/N=C/N3CCCCC3)c3cccc([N+](=O)[O-])c3)nc2c1` [Compound 17, 5-methoxy-2-(((E)-2-(3-nitrophenyl)-2-(((E)-piperidin-1-ylmethylene)hydrazono)ethyl)thio)-1H-benzo[d]imidazole], the IC50 was 27.3 ± 0.5 µM in test [1] (setting [3]) and 23.1 ± 0.41 µM in test [2] (setting [4]).

Turning to `Cc1ccc(/C(CSc2nc3cc([N+](=O)[O-])ccc3[nH]2)=N\N=C\c2cc[nH]c2)cc1` [Compound 13, 2-(((E)-2-(((E)-(1H-pyrrol-3-yl)methylene)hydrazono)-2-(p-tolyl)ethyl)thio)-5-nitro-1H-benzo[d]imidazole], the IC50 in test [1] (setting [3]) was found to be 33.3 ± 0.42 µM; in test [2] (setting [4]), 27.08 ± 0.25 µM.

For orientation: IC50 means the midpoint of a concentration-inhibition curve.
